Data on 13 substances can be found in paper PMC5034536, “Molecular insights into substrate recognition and catalytic mechanism of the chaperone and FKBP peptidyl-prolyl isomerase SlyD” (BMC Biology, 2016).

Several values for one entry are separate records, joined by “and”; a condition that tells them apart may be missing. Identical values can stand only once. Like-named read-outs stand apart in the source and are kept apart here. No end group written: not given here.

In data set [1] the target is T1, TtSlyDFL (full-length SlyD from Thermus thermophilus) (Thermus thermophilus, UniProt Q5SLE7).
T1 sequence (Q5SLE7 1-149): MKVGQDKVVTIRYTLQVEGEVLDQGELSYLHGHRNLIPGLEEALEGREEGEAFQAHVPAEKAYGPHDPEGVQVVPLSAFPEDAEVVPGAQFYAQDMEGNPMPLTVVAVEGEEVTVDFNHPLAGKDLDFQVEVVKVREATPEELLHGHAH
The experiment in a line: ITC binding of peptides to full-length TtSlyD. The conditions noted are these: for ΔH1 / –T · ΔS1 / N1: site 1 (IF domain).
Procedure: ITC measurements were performed on iTC200 or VP-ITC instruments (GE Healthcare, Chalfont St. Giles, UK). The calorimetric cell (with a total cell volume of 220 μl in the iTC200, or 1400 μl in the VP-ITC) contained 50–200 μM TtSlyDFL dissolved in 20 mM HEPES, 100 mM NaCl, pH 7.5. Peptide samples of 700–2000 μM were titrated into the cell at 20 °C (VP-ITC) or 25 °C (iTC200). The heat generated after each ligand injection was obtained by integration of the calorimetric signal. Resulting binding isotherms were analyzed according to a one-site or two-site binding site model using the Origin software (OriginLab Corp., Northampton, MA, USA).

In data set [2] the target is TtSlyDΔIF (IF domain replaced by the flap loop from human FKBP12) (Thermus thermophilus, UniProt Q5SLE7). Type of data set: binding. Particulars: ITC one-site model (FKBP domain), 25 °C; for Kd: read-out: KD2.
A further data set relates to TtSlyDFL. The experiment in a line: Michaelis-Menten analysis with S2-P25A peptide by NMR lineshape analysis. Particulars: 25 °C. Type of data set: biochemical, Thermus thermophilus. The protocol:
(§1) Having validated the method, we next turned to the longer unmodified peptides of interest here. […] The ^13C shifts of proline in the S2-P25A peptide show the same characteristics as an isolated proline amino acid. […] We determined apparent rate constants for TtSlyDFL and TtSlyDΔIF as a function of peptide concentration (Fig. 7b). The resulting kcat/KM value was 368 ± 4 μM^–1s^–1 for TtSlyDFL, which is a factor of 100–1000 higher compared to results obtained previously for various members of the SlyD family using tetrapeptides or unfolded proteins, and even exceeds those generally reported for FKBPs and other PPIases. […] However, the difference in kcat/KM between TtSlyDFL and TtSlyDΔIF is much smaller than what has been observed using protein substrates, and may simply relate to the lower binding affinity of TtSlyDΔIF relative to TtSlyDFL (in this scenario, KM would be larger for TtSlyDΔIF). In the case of TtSlyDFL we could separate the two parameters, yielding kcat = (0.7 ± 0.1) 10^6 s^–1 and KM = 2.0 ± 0.4 mM.
(§2) Lineshape analysis was performed using MATLAB.
(§3) Activity studies using the 15-residue-long S2-P25A peptide utilized a sample with a uniformly ^13C-labeled proline residue. ^1H–^13C HSQC experiments were used to separate the peptide signals in two dimensions, such that the cis and trans forms could both be detected without overlap. […] One-dimensional ^1H slices of the β and γ protons for the cis and trans forms were extracted from the two-dimensional spectrum, and lineshape analysis was applied. Michaelis-Menten-like studies were performed using a fixed concentration of TtSlyDFL of 0.2 μM and peptide concentrations ranging from 10 to 1000 μM.

The subject of another data set is TtSlyDΔIF. Described as above. Type of data set: biochemical, Thermus thermophilus. The conditions noted are these: 25 °C. How it is done: as §1, §2, §3
The nature of data set [3]: Relative population of the cis form of the peptide by NMR. Type of data set: physicochemical. The conditions noted are these: free S2-P25A peptide with 13C-labeled proline (P29); comparison of cis and trans NMR intensities; 25 °C. How it is done:
as §1
Activity studies using the 15-residue-long S2-P25A peptide utilized a sample with a uniformly ^13C-labeled proline residue. ^1H–^13C HSQC experiments were used to separate the peptide signals in two dimensions, such that the cis and trans forms could both be detected without overlap. […]

The mark [4] stands for this setting: ITC two-site model, site 2 (FKBP domain) stoichiometry, 25 °C.
Setting [5] is: ITC two-site model, site 2 (FKBP domain), 25 °C.
The mark [6] stands for this setting: ITC two-site model, 20 °C, wild-type TtSlyDFL.
The mark [7] stands for this setting: ITC two-site model, site 2 (FKBP domain), 20 °C, wild-type TtSlyDFL.
[8] abbreviates: ITC single binding site model, 25 °C.
The mark [9] stands for this setting: ITC two-site model, 25 °C, 5 % DMSO.
Setting [10] is: ITC two-site model, site 2 (FKBP domain), 25 °C, 5 % DMSO.
The mark [11] stands for this setting: S2-P25A peptide as substrate, NMR lineshape analysis.

On to GHQTRYWNPKMKPFI-NH2 [S2-minus1], for which, in data set [1] (ITC two-site model, 25 °C), the ΔH1 result is “–16.6 ± 0.12 kcal/mol” and the “–T · ΔS1” value turned out to be 8.2 kcal/mol. Besides, the N2 in data set [1] (setting [4]) is 0.82 ± 0.02. Besides, in data set [1] (setting [5]), the ΔH2 entry is given as “–11.1 ± 0.29 kcal/mol” and the “–T · ΔS2” value turned out to be 4.1 kcal/mol.

In the case of KAGVHFGHQTRYWNP-NH2 [S2-minus3], in data set [1] (ITC two-site model, 25 °C), the ΔH1 result was “–17.0 ± 0.73 kcal/mol” and the “–T · ΔS1” value turned out to be 9.4 kcal/mol. The N2 in data set [1] (setting [4]) came to 1.17 ± 0.06. In addition, in data set [1] (setting [5]), the ΔH2 result is given as “–2.1 ± 1.41 kcal/mol” and the “–T · ΔS2” value is listed as “–4.8 kcal/mol”.

As to KMKPFIFGARNKVHI-NH2 [S2-plus2], in data set [1] (ITC two-site model, 25 °C), the ΔH1 entry is “–13.1 ± 0.14 kcal/mol” and the “–T · ΔS1” value was 3.9 kcal/mol. The N2 in data set [1] (setting [4]) worked out at 0.75 ± 0.04. In addition, in data set [1] (setting [5]), the ΔH2 entry is on record as “–8.4 ± 0.39 kcal/mol” and the “–T · ΔS2” value was found to be 1.2 kcal/mol.

For the substance RYWNPKMKPFIFG-NH2 [S2-short2], in data set [1] (setting [6]), the N1 was 0.72 ± 0.03, the ΔH1 entry is listed as “–9.7 ± 0.21 kcal/mol” and the “–T · ΔS1” value was determined as 0.9 kcal/mol. Further, in data set [1] (setting [7]), the N2 was found to be 0.91 ± 0.02, the ΔH2 result was “–5.5 ± 0.34 kcal/mol” and the “–T · ΔS2” value was “–1.9 kcal/mol”.

SGLVTRGS-NH2 [SlpA linker P5T] showed a Kd in data set [1] of 130 ± 20 µM. For the same substance, in data set [1] (setting [8]), the N2 came out at 1.76 ± 0.12, the ΔH2 result was “–0.9 ± 0.10 kcal/mol” and the “–T · ΔS2” value is “–4.4 kcal/mol”.

Regarding TRYANPKMKPFIFGA-NH2 [S2-W23A], in data set [1] (ITC two-site model, 25 °C), the ΔH1 result is “–15.8 ± 0.24 kcal/mol” and the “–T · ΔS1” value was found to be 7.5 kcal/mol. This substance returned an N2 in data set [1] (setting [4]) of 0.91 ± 0.40. In addition, in data set [1] (setting [5]), the ΔH2 result is on record as “–2.3 ± 0.97 kcal/mol” and the “–T · ΔS2” value is listed as “–4.2 kcal/mol”. In addition, in data set [2], the N2 was found to be 0.77 ± 0.02, the ΔH2 result is on record as “–8.1 ± 0.25 kcal/mol”, the “–T · ΔS2” value worked out at 1.6 kcal/mol and the Kd turned out to be 17.1 ± 1.13 µM.

Take TRYWNAKMKEFIFGA-NH2 [S2-P25A/P29E]: in data set [1] (setting [9]), the N1 was determined as 1.13 ± 0.03, the ΔH1 result is given as “–14.1 ± 0.33 kcal/mol” and the “–T · ΔS1” value turned out to be 6.1 kcal/mol. In data set [1] (setting [10]), the N2 came to 1.09 ± 0.24, the ΔH2 result was “–5.9 ± 1.91 kcal/mol” and the “–T · ΔS2” value is reported as “–0.1 kcal/mol”. Besides, in data set [2] (5 % DMSO), the N2 is listed as 0.84 ± 0.06, the ΔH2 result is listed as “–6.3 ± 0.58 kcal/mol”, the “–T · ΔS2” value worked out at 0.1 kcal/mol and the Kd was found to be 29 ± 4.62 µM.

For TRYWNAKMKPFIFGA-NH2 [S2-P25A], the ΔH1 entry in data set [1] (ITC two-site model, 25 °C) is “–16.6 ± 0.16 kcal/mol”. Further, the “–T · ΔS1” value in data set [1] (ITC two-site model, 25 °C) worked out at 7.2 kcal/mol. Moreover, the N2 in data set [1] (setting [4]) is recorded as 1.02 ± 0.04; in data set [2] it was 0.91 ± 0.01. Moreover, the ΔH2 result in data set [1] (setting [5]) is reported as “–8.5 ± 0.82 kcal/mol”; in data set [2] it was “–11.7 ± 0.24 kcal/mol”. The “–T · ΔS2” value in data set [1] (setting [5]) is 1.5 kcal/mol; in data set [2], 5.0 kcal/mol. For the same substance, in data set [2], the Kd is 12.1 ± 0.76 µM. Also, the kcat/KM is 3.68 ± 0.04 10^8 M^−1s^−1 and 3.7 10^8 M^−1s^−1 with TtSlyDFL (S2-P25A as substrate (cis concentration), 0.2 μM enzyme, Michaelis-Menten fitting); 368 ± 4 μM^–1s^–1 in the data set on TtSlyDFL (setting [11]); 2.5 10^8 M^−1s^−1 with TtSlyDΔIF (S2-P25A as substrate (cis concentration), 0.2 μM enzyme); 248 ± 1 μM^–1s^–1 with TtSlyDΔIF (setting [11]). The kcat in the data set on TtSlyDFL (S2-P25A as substrate) was 0.7 ± 0.1 10^6 s^–1. Further, the “relative population of the cis form (cis content)” value in data set [3] stood at 14.5 ± 1%.

Take TRYWNNKMKNFIFGA-NH2 [S2-P25N/P29N]: in data set [1] (setting [9]), the N1 is 0.93 ± 0.02, the ΔH1 result is on record as “–16.8 ± 0.12 kcal/mol” and the “–T · ΔS1” value is reported as 7.8 kcal/mol. Moreover, in data set [1] (setting [10]), the N2 was determined as 1.18 ± 0.18, the ΔH2 entry is reported as “–2.3 ± 0.33 kcal/mol” and the “–T · ΔS2” value is “–4.4 kcal/mol”.

With TRYWNPKMKEFIFGA-NH2 [S2-P29E], in data set [1] (ITC two-site model, 25 °C), the ΔH1 entry is “–15.8 ± 0.16 kcal/mol” and the “–T · ΔS1” value is on record as 7.2 kcal/mol. In addition, in data set [1] (setting [4]), the N2 stood at 1.02 ± 0.04. For the same substance, in data set [1] (setting [5]), the ΔH2 result is listed as “–2.7 ± 0.48 kcal/mol” and the “–T · ΔS2” value is recorded as “–4.5 kcal/mol”. Besides, in data set [2], the N2 is on record as 0.69 ± 0.03, the ΔH2 result is listed as “–10.8 ± 0.27 kcal/mol”, the “–T · ΔS2” value is reported as 4.2 kcal/mol and the Kd was 13.8 ± 0.88 µM.

On to VHFGHQTRYWNPKMK-NH2 [S2-minus2], for which, in data set [1] (ITC two-site model, 25 °C), the ΔH1 entry is given as “–16.1 ± 0.21 kcal/mol” and the “–T · ΔS1” value turned out to be 8.1 kcal/mol. The substance also had an N2 in data set [1] (setting [4]) of 0.99 ± 0.06. For the same substance, in data set [1] (setting [5]), the ΔH2 entry is on record as “–4.3 ± 0.92 kcal/mol” and the “–T · ΔS2” value is recorded as “–2.3 kcal/mol”.

As for WNPKMKPFIFGARNK-NH2 [S2-plus1], in data set [1] (ITC two-site model, 25 °C), the ΔH1 result is listed as “–11.4 ± 0.13 kcal/mol” and the “–T · ΔS1” value is 2.3 kcal/mol. This substance came in with an N2 in data set [1] (setting [4]) of 0.94 ± 0.03. In data set [1] (setting [5]), the ΔH2 entry is “–7.8 ± 0.23 kcal/mol” and the “–T · ΔS2” value is listed as 0.4 kcal/mol.

For the substance YWNPKMKPFIF-NH2 [S2-short4], in data set [1] (setting [6]), the N1 is on record as 0.73 ± 0.24, the ΔH1 entry is listed as “–10.7 ± 2.33 kcal/mol” and the “–T · ΔS1” value was determined as 2.7 kcal/mol. In data set [1] (setting [7]), the N2 is listed as 0.87 ± 0.23, the ΔH2 result is “–6.3 ± 3.02 kcal/mol” and the “–T · ΔS2” value is given as “–0.9 kcal/mol”.
